Assay [1] has as its target T1, RNA-binding protein pos-1 (Caenorhabditis elegans, UniProt G5EF15).
T1 sequence (G5EF15 whole entry): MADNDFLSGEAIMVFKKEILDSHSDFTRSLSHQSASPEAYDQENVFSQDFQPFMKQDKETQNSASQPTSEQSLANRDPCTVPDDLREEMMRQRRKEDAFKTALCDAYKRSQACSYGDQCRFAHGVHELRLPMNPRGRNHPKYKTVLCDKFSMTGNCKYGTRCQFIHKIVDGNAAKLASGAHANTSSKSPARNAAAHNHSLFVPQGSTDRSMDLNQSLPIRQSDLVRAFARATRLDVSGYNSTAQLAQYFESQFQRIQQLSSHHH
Description: inhibitors of POS-1/mex-3 RNA binding, dose response, biochemical, fluorescence polarization (AID 1964).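 Also: purified POS-1 fused to maltose binding protein made in E. coli; potency of compounds blocking POS-1 binding to fluorescent RNA.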

Assay [2] deals with T2, Bcl-2-related protein A1 (Mus musculus, UniProt Q07440).
T2 sequence (Q07440 whole entry): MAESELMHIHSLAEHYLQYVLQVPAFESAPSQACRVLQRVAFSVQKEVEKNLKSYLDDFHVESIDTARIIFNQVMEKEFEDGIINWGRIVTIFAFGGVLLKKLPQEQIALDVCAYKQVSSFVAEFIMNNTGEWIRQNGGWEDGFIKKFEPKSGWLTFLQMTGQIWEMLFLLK
Description: Bfl-1 inhibitors, primary screen, biochemical, fluorescence polarization, FITC-Bid, mouse (AID 432). (In general: In fluorescence polarisation assays a small probe gives low polarisation when free and higher when bound to something large.)

Assay [3] has as its target T3, Heat shock factor protein 1 (Mus musculus, UniProt P38532).
T3 sequence (P38532 whole entry): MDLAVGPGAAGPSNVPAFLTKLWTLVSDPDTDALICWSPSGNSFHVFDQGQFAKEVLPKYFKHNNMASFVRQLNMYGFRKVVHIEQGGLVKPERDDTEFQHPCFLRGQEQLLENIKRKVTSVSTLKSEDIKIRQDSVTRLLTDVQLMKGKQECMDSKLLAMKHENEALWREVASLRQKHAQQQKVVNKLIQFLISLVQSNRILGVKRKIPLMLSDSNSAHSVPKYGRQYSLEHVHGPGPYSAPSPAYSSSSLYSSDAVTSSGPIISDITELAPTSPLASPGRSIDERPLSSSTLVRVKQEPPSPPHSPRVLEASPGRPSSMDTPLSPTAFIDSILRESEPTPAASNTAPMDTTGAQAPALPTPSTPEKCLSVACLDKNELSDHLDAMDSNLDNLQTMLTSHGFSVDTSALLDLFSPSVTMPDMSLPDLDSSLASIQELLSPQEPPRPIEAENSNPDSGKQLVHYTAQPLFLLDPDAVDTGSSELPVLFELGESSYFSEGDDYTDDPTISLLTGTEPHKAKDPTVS
Description: HSF1 potentiators in luciferase reporter cells, confirmation, cell-based, NIH3T3, luminescence, dose retest (AID 435004).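 Also: stress induced by proteasome inhibitor MG132 added 30 min after compound; luciferase reporter driven by HSF1 response element in NIH3T3 cells; actives raise luminescence as potentiators of the MG132 stress response.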 Type of assay: functional. (Reporter assays use an easily measured gene product as a stand-in for the process of interest.)

Assay [4] deals with T4, Zinc finger protein mex-5 (Caenorhabditis elegans, UniProt Q9XUB2).
T4 sequence (Q9XUB2 whole entry): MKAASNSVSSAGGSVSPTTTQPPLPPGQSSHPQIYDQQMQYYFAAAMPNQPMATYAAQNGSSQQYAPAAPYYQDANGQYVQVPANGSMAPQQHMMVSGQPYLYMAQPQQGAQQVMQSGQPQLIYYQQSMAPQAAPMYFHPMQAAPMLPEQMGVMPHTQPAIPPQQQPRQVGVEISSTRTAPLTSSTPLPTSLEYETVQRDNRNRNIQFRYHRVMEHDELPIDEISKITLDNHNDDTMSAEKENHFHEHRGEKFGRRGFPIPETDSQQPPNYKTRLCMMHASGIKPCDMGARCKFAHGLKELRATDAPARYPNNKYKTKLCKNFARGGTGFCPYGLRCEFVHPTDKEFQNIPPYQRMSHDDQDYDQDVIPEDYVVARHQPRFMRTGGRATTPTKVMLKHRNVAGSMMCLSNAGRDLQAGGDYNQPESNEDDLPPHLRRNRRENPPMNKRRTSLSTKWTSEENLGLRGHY
In words: MEX-5/TCR-2 RNA interaction inhibitors, dose response, biochemical, C. elegans, fluorescence polarization (AID 1960).

For assay [5], the target named is G-protein coupled receptor 35 (Homo sapiens, UniProt Q9HC97). In words: GPR35 antagonists blocking zaprinast-driven arrestin recruitment, primary screen, imaging, U2OS, beta-arrestin-GFP, zaprinast agonist (AID 2058).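 Also: antagonist potency meaning inhibition of agonist-induced arrestin redistribution.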 Type of assay: functional.
Assay [6] concerns the target T2, Bcl-2-related protein A1. Description: Bfl-1 inhibitors blocking BH3 peptide binding, confirmation, biochemical, TR-FRET, mouse Bfl-1 (AID 621).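 Also: TR-FRET binding of GST-Bfl-1 to FITC-labelled Bid peptide via terbium antibody.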 On the technique in general: Time-resolved FRET reads energy transfer from a long-lived donor to a nearby acceptor.
Assay [7] can be described thus: Late stage counterscreen results from the probe development effort to identify activators of signal transducer and activator of transcription 1 (STAT1): luminescence-based cell-based dose response assay to identify cytotoxic compounds. Type of assay: functional.
Assay [8] relates to Danio rerio. In words: In Vivo Angiogenesis Dose-Response Confirmation. [Related pubchem assays: 732 (Assay preceding this confirmatory assay.)]. Type of assay: functional, organism-based.
For assay [9], the target named is Cytochrome P450 3A4 (Homo sapiens, UniProt P08684).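 Also: CYP3A4 tested as one member of a cytochrome P450 panel screen.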
The nature of assay [10]: Luminescence Cell-Based Dose Response HTS to Identify Inhibitors of 5'UTR Stem-Loop Driven Prion Protein mRNA Translation in H4 Neuroglioblastoma Cells. [Related pubchem assays: 1827 (Project Summary), 1813 (Primary HTS)]. Type of assay: functional.
The nature of assay [11]: inhibitors of firefly luciferase expression or activity, dose response, H4 neuroglioma cells, luminescence (AID 1990). Type of assay: functional, cell-based.
In assay [12] the target is Cytochrome P450 2C19 (Homo sapiens, UniProt P33261). In words: qHTS Assay for Inhibitors and Substrates of Cytochrome P450 2C19. [Related pubchem assays: 410 ]. Particulars: read-out: Potency. Type of assay: ADME.
For assay [13], the target named is T5, Rac GTPase-activating protein 1 (Homo sapiens, UniProt Q9H0H5).
T5 sequence (Q9H0H5 whole entry): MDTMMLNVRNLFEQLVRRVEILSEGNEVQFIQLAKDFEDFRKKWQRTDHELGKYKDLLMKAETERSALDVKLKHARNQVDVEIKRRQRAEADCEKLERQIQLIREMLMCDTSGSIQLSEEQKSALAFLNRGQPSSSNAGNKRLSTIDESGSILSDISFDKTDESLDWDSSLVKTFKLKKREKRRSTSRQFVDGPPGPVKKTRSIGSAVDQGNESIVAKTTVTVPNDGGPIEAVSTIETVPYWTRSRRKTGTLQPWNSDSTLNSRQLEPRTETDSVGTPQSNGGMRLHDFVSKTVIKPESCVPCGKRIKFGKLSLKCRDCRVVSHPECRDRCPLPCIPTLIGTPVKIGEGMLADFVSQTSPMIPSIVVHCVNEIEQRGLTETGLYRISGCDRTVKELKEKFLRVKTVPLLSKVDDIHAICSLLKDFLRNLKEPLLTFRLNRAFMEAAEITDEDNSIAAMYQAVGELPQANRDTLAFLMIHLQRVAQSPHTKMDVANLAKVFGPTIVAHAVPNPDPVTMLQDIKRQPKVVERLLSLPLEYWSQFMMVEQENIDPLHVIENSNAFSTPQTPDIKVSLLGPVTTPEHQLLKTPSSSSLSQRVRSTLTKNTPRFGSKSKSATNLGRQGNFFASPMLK
Description: MgcRacGAP GTPase-activating activity inhibitors, confirmation, biochemical, ADP Hunter fluorescence, primary and confirmatory (AID 624330). Type of assay: functional.

Assay [14] is described as follows: Luminescent dose response cell-based high throughput screening assay for inhibitors of the Janus kinase 2 mutant JAK2V617F. [Related pubchem assays: 1446 (Primary screen.), 1521 (Confirmation assay.), 1486 (Counter screen.)]. Type of assay: functional.
For assay [15], the target named is Large T antigen (Simian virus 40, UniProt P03070). Type of assay: functional, Betapolyomavirus macacae.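 Also: Confirmatory-stage PubChem screen for compounds that inhibit SV40 T antigen.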
In assay [16] the target is Heat shock protein HSP90 (Homo sapiens, UniProt P07900+P08238). In words: tumor Hsp90 inhibitor potency, dose response (AID 712). Type of assay: functional.
Assay [17] addresses FAD-linked sulfhydryl oxidase ALR (Homo sapiens, UniProt P55789). Description: inhibitors of human ALR sulfhydryl oxidase, dose response, biochemical, H2O2 detection, luminescence, cherry-pick (AID 493248).
The target in assay [18] is T6, Leucine aminopeptidase (Plasmodium falciparum 3D7, UniProt Q8IL11).
T6 sequence (Q8IL11 whole entry): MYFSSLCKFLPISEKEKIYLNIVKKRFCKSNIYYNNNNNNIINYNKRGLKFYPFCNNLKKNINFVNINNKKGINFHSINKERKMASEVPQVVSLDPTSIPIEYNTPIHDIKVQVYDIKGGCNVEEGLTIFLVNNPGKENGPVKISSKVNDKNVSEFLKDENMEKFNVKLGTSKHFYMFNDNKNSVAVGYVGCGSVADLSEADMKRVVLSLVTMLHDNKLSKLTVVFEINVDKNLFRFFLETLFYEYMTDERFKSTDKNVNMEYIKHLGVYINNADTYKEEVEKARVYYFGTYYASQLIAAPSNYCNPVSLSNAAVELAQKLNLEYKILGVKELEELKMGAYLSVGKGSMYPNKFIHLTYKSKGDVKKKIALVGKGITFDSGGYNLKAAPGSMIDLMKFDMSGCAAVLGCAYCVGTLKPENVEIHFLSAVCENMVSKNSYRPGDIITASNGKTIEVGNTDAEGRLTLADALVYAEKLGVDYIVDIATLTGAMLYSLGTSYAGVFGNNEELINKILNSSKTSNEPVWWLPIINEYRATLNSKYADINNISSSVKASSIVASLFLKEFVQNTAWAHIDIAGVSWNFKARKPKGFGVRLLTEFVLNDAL
In words: P. falciparum M17LAP inhibitors, primary screen, biochemical, fluorogenic H-Leu-NHMec substrate, 1536-well (AID 1619). Type of assay: functional.

In assay [19] the target is Peroxisome proliferator-activated receptor gamma/Nuclear receptor coactivator 2 (Homo sapiens, UniProt P37231). In words: TR-FRET dose response biochemical High Throughput Screening assay for agonists of the steroid receptor coactivator 2 (SRC-2) recruitment by the peroxisome proliferator-activated receptor gamma (PPAR gamma): non-selective agonists. [Related pubchem assays: 1297, 1032 ]. Type of assay: functional.
Sequence of Peroxisome proliferator-activated receptor gamma/Nuclear receptor coactivator 2 (P37231 whole entry): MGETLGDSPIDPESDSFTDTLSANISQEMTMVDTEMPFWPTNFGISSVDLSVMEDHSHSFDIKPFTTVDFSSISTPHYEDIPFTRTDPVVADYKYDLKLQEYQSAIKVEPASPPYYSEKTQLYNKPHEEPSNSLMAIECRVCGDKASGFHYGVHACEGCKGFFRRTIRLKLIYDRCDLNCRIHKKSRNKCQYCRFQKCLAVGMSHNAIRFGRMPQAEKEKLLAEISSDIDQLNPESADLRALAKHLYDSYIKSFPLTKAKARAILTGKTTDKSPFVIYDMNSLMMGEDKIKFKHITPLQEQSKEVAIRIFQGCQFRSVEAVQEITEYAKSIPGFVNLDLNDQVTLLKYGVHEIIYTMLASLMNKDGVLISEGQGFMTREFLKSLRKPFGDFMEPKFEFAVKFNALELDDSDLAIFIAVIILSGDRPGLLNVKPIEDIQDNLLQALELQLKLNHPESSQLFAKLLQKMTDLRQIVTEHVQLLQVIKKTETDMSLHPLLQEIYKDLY
Sequence of Peroxisome proliferator-activated receptor gamma/Nuclear receptor coactivator 2 (Q15596 whole entry, further chain): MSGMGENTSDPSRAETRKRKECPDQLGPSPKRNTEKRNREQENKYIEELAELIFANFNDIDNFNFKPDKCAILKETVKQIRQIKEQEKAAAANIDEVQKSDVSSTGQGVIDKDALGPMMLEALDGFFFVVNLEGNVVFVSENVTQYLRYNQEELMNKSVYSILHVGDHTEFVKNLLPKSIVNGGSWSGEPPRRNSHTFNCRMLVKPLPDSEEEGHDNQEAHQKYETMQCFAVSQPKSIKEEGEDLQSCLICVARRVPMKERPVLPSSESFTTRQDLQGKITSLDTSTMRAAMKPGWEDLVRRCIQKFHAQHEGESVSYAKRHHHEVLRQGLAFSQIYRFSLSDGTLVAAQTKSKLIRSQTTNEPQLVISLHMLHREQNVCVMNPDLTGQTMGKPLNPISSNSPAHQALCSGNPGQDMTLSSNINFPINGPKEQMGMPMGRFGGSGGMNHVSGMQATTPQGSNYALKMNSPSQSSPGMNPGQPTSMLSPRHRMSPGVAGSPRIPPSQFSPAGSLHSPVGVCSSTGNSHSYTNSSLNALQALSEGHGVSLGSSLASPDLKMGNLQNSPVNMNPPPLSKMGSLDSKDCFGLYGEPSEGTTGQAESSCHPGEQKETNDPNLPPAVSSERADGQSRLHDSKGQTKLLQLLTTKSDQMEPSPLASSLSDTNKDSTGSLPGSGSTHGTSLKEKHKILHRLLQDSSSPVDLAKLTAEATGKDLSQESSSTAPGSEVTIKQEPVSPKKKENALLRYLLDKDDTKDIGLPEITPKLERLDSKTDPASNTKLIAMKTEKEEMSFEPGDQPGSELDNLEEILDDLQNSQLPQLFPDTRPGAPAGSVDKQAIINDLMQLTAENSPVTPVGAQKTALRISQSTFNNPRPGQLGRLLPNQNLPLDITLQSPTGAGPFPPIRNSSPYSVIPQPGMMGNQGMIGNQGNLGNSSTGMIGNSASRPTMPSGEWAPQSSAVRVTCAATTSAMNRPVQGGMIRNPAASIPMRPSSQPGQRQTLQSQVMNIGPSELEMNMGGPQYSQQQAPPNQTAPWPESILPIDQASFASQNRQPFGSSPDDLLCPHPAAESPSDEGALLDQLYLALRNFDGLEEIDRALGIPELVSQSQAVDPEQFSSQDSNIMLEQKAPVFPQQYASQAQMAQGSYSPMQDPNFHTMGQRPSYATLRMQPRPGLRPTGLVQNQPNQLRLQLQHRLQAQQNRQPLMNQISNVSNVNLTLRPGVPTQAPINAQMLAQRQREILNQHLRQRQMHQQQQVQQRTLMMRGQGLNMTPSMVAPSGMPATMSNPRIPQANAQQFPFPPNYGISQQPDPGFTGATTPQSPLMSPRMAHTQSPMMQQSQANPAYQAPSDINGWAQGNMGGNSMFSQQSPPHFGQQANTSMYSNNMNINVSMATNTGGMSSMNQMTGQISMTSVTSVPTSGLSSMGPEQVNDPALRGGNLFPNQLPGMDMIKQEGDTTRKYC

Assay [20] has as its target Peroxisome proliferator-activated receptor gamma/Nuclear receptor coactivator 3 (Homo sapiens, UniProt P37231). Description: TR-FRET dose response biochemical High Throughput Screening assay for agonists of the steroid receptor coactivator 3 (SRC-3) recruitment by the peroxisome proliferator-activated receptor gamma (PPAR gamma): non-selective agonists. [Related pubchem assays: 1301 (Confirmation screen.), 1048 (Primary screen.)]. Type of assay: functional.

Assay [21] has as its target Peroxisome proliferator-activated receptor gamma/Nuclear receptor corepressor 2 (Homo sapiens, UniProt P37231+Q9Y618). Description: Counterscreen for NR2E3 inverse agonists: TR-FRET-based biochemical high throughput dose response assay to identify inverse agonists of the interaction between peroxisome proliferator-activated receptor gamma (PPARg) and nuclear receptor co-repressor 2 (NCOR2). Type of assay: functional.

For assay [22], the target named is Peroxisome proliferator-activated receptor gamma/Nuclear receptor coactivator 1 (Homo sapiens, UniProt P37231). Description: TR-FRET dose response biochemical High Throughput Screening assay for agonists of the steroid receptor coactivator 1 (SRC-1) recruitment by the peroxisome proliferator-activated receptor gamma (PPAR gamma): non-selective agonists. [Related pubchem assays (depositor defined):AID1300, AID1808, AID504735, AID631]. Type of assay: protein assay.

Assay [23] deals with Photoreceptor-specific nuclear receptor (Homo sapiens, UniProt Q9Y5X4). In words: NR2E3 inverse agonists, dose response, biochemical, TR-FRET (AID 463256). Type of assay: functional.
Assay [24] concerns the target Ephrin type-A receptor 4 (Mus musculus, UniProt Q03137). Description: inhibitors of EphA4 binding to KYL peptide, primary screen, biochemical, colorimetric, mouse EphA4 (AID 689). Type of assay: functional.
In assay [25] the target is Paired box protein Pax-8 (Homo sapiens, UniProt Q06710). Description: inhibitors of PAX8-driven TPO luciferase reporter, dose response, RMG-I cells, cherry-pick (AID 687027).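 Also: luciferase reporter driven by Pax8 target thyroperoxidase promoter measured by SteadyGlo luminescence.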 Type of assay: functional, cell-based.
Assay [26] can be described thus: non-specific cell cytotoxicity, dose response, cytotoxicity control for PAX8 inhibitor project, plate reader, dry powder samples (AID 743021). Type of assay: functional, cell-based.

By EC50 is commonly meant the midpoint of the concentration-response curve. The term IC50 denotes the concentration that gives 50% inhibition.

The source made the active and inactive calls.

Sequence of Ephrin type-A receptor 4 (Q03137 whole entry): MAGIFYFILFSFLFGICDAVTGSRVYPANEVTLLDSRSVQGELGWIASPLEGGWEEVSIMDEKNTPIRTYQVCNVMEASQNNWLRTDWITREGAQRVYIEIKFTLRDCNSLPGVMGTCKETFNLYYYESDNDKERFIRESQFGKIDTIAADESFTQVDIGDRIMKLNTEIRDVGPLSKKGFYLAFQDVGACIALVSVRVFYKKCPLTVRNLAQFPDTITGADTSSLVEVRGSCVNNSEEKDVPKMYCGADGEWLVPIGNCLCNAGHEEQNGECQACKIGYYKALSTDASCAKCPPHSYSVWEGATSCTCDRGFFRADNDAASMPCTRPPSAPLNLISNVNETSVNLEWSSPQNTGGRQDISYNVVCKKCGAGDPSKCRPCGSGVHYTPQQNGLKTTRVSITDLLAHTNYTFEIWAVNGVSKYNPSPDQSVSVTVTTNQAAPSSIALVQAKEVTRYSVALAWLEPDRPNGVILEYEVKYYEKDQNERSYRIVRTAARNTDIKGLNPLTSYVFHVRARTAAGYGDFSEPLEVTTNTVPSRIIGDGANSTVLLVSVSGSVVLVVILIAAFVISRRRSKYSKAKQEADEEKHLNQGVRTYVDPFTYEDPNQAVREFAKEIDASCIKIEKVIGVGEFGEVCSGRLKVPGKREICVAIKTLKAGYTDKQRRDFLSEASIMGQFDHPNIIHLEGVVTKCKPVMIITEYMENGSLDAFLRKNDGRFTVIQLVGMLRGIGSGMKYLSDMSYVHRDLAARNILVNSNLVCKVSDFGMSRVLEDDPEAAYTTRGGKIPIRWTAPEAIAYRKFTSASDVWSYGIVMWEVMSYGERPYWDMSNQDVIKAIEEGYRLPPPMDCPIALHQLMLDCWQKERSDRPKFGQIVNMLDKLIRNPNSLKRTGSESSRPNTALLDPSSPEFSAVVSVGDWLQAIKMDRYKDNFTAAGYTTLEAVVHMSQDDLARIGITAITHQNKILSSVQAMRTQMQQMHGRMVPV
Sequence of Peroxisome proliferator-activated receptor gamma/Nuclear receptor coactivator 3 (P37231 whole entry): as the sequence (P37231 whole entry) above
Sequence of Peroxisome proliferator-activated receptor gamma/Nuclear receptor coactivator 3 (Q9Y6Q9 whole entry, further chain): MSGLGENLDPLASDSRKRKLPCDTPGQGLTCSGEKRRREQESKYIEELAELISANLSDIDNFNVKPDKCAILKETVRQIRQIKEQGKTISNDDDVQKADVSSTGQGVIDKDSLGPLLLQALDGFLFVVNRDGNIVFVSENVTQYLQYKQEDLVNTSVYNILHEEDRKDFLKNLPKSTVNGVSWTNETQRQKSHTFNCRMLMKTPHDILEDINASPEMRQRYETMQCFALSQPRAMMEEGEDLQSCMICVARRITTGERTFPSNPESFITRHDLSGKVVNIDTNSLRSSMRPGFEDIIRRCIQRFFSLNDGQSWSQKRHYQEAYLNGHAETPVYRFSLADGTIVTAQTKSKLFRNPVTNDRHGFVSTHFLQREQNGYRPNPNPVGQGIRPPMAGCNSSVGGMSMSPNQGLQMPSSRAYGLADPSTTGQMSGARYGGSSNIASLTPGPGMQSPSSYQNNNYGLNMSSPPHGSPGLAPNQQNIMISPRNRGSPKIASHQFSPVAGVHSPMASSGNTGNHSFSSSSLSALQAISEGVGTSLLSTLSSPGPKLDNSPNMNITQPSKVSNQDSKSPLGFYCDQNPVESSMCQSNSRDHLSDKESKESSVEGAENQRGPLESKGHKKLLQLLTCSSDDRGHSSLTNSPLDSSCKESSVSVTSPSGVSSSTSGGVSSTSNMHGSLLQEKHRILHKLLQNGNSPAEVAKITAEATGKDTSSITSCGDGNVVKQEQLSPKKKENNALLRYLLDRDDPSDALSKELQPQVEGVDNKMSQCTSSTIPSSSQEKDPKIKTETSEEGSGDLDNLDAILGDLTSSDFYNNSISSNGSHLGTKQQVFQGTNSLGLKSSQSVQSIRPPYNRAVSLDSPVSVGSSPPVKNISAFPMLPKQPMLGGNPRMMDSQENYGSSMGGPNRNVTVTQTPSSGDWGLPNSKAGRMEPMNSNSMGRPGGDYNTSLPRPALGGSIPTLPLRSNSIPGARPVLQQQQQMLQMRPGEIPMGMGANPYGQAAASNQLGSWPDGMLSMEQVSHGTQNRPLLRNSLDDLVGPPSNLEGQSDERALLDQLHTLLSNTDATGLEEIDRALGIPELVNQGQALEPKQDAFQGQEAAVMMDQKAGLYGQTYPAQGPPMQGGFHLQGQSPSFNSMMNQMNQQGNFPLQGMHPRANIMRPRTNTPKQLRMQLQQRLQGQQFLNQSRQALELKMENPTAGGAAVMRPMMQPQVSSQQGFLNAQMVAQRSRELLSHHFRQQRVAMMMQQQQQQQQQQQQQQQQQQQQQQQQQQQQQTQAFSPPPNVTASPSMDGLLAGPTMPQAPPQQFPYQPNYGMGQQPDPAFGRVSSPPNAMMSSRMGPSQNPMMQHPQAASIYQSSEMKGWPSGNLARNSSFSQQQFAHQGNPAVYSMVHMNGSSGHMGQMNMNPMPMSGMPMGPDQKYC
Sequence of FAD-linked sulfhydryl oxidase ALR (P55789 whole entry): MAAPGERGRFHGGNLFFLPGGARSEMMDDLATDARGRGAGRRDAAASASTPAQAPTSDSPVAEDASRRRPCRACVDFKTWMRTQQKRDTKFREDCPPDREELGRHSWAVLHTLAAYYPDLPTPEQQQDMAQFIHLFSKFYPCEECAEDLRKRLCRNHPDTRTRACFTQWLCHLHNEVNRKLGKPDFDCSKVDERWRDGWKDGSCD

In the case of `CN1CC=C2C(C#N)=C(N)C(C#N)(C#N)C(c3cccc(Cl)c3Cl)C2C1` (stereo unspecified), the EC50 in assay [1] was 14.4 µM (active); in [3], > 260 µM (inactive); in assay [4], 13.5 µM (active). For the same molecule, the results for the IC50 in assay [2], in assay [5] and in assay [6] were > 100 µM (not active), 12 µM (inactive) and > 100 µM (not active), respectively.

Consider `Cc1ccc(C(=O)Nc2nc3ccccc3s2)s1`, for which, in [7], the IC50 is on record as > 55.7 µM (not active).

In the case of `NC(=O)c1cc(N2CC2)c([N+](=O)[O-])cc1[N+](=O)[O-]` [TRETAZICAR], the 50% inhibitory concentration (IC50) in assay [8] is on record as 1.2 µM (not active). In [9], the AC50 is 39.8 µM (inconclusive). In addition, the EC50 in [10] and in [11] was > 120 µM (not active) in each case.

Take `COc1cc2oc(-c3ccccc3)cc(=O)c2cc1OC`: the AC50 in assay [12] was 31.6 µM (inconclusive).

Consider `CCCc1nc2ccccc2c(=O)n1/N=C/c1ccc(O)c(O)c1`, for which the IC50 was 38.8 µM (active) in [13]; 2.18 µM (active) in assay [14]; 10.5 µM (active) in assay [15]; 17.5816 µM in assay [16]; 24.2 µM (active) in [18]. The AC50 in assay [17] is 0.577 µM (active).

`Cc1ccc(S(=O)(=O)Nc2cnn(-c3ccccc3)c(=O)c2Cl)cc1`: the EC50 was 19.2 µM (not active) in [19], > 79.4 µM (not active) in assay [20] and > 79.4 µM (inactive) in assay [22]. The IC50 in [21] and in assay [23] was > 39.8 µM (not active) throughout.

Regarding `FC(F)(F)c1nnc2c(Sc3ccccn3)nc3ccccc3n12`, the IC50 in [24] was > 100 µM (not active). The AC50 in [25] was 7.08 µM (active); in [26] it was 55.5 µM (active).

Values taken from ChEMBL document CHEMBL1201862, “PubChem BioAssay data set” (2004).
